Source: ChEMBL document CHEMBL5380835, “Discovery of Clinically Used Octenidine as NRAS Repressor That Effectively Inhibits NRAS-Mutant Melanoma” (J Med Chem, 2023)
Active and inactive are the calls of the source. No cut-off for these calls is given here.

Tests used:
SK-MEL-2 [1] = experiment: Upregulation of NRAS mRNA level in human SK-MEL-2 cells at 1/2 times IC50 incubated for 24 hrs by RT-qPCR analysis; type: functional, cell-based
SK-MEL-2 [2] = experiment: Effect on NRAS protein translation in human SK-MEL-2 cells at 1/2 times IC50 incubated for 24 hrs by Western blot analysis; type: functional, cell-based
SK-MEL-2 [3] = experiment: Cytotoxicity against human SK-MEL-2 cells expressing NRAS mutant assessed as cell growth inhibition incubated for 48 hrs by MTT assay; type: functional, cell-based; conditions: SK-MEL-2, 48 h
SK-MEL-2 [4] = experiment: Cytotoxicity against human SK-MEL-2 cells assessed as cell growth inhibition incubated for 24 hrs by MTT assay; type: functional, cell-based; conditions: SK-MEL-2, 24 h
SK-MEL-2 [5] = experiment: Synergistic cytotoxicity against human SK-MEL-2 cells expressing NRAS mutant assessed as combination index measured for 48 hrs in presence of MEK-162 by MTT assay; type: functional
SK-MEL-2 [6] = experiment: Antiproliferative activity against human SK-MEL-2 cells assessed as inhibition of colony formation at 1.5 uM measured after 10 days by crystal violet staining based assay; type: functional, cell-based; conditions: time 10.0 day
SK-MEL-2 [7] = experiment: Synergistic cytotoxicity against human SK-MEL-2 cells expressing NRAS mutant assessed as combination index measured for 48 hrs in presence of LY3214996 by MTT assay; type: functional
SK-MEL-2 [8] = experiment: Synergistic cytotoxicity against human SK-MEL-2 cells expressing NRAS mutant assessed as combination index measured for 48 hrs in presence of Rapamycin by MTT assay; type: functional
SK-MEL-2 [9] = experiment: Synergistic cytotoxicity against human SK-MEL-2 cells expressing NRAS mutant assessed as combination index measured for 48 hrs in presence of MK2206 by MTT assay; type: functional

Row | SMILES | Activity (SK-MEL-2 [1]) | Activity (SK-MEL-2 [2]) | IC50 (SK-MEL-2 [3]) [µM] | IC50 (SK-MEL-2 [4]) [µM] | CI (SK-MEL-2 [5]) | inhibition (SK-MEL-2 [6]) | CI (SK-MEL-2 [7]) | CI (SK-MEL-2 [8]) | CI (SK-MEL-2 [9])
1 | Nc1ccc2cc3ccc(N)cc3nc2c1 [PROFLAVINE] | Active | inactive | 1.6 | 5.31 |  |  |  |  | 
2 | CO[C@H]1C[C@@H]2CC[C@@H](C)[C@@](O)(O2)C(=O)C(=O)N2CCCC[C@H]2C(=O)O[C@H]([C@H](C)C[C@@H]2CC[C@@H](O)[C@H](OC)C2)CC(=O)[C@H](C)/C=C(\C)[C@@H](O)[C@@H](OC)C(=O)[C@H](C)C[C@H](C)/C=C/C=C/C=C/1C [SIROLIMUS] |  |  |  |  | 0.5 | Active | 0.5 |  | 
3 | Cn1nccc1Nc1nccc(-c2cc3c(s2)C(C)(C)N(CCN2CCOCC2)C3=O)n1 [TEMUTERKIB] |  |  |  |  |  | Active |  | 0.5 | 0.5
